The source of these data is PubChem BioAssay (NCI).

Common to all, as to assay: NCI tumour cell line growth inhibition, 48 h
Experiment [1] concerns DLD-1 colon.
The test system of experiment [2] is DMS 114 small cell lung.
For experiment [3], the system named is HOP-18 NSCLC.
Experiment [4] has as its system LXFL 529 NSCLC.
Experiment [5] relates to M19-MEL melanoma.
Experiment [6] deals with SNB-78 CNS.
Experiment [7] deals with XF 498 CNS.
Experiment [8] concerns RXF-631 renal.
The test system of experiment [9] is MDA-N.
In experiment [10] the test system is P388 leukemia.
For experiment [11], the system named is P388/ADR leukemia.
In experiment [12] the test system is SN12K1 renal.

Where “and” joins values, the source holds several entries; their conditions need not be identical. Identical values can stand only once.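 Method: 48-hour compound exposure of cells in 96-well plates, five concentrations, linear interpolation of endpoints. GI50 marks 50% less growth. TGI is the concentration that stops growth completely.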

With `COc1cccc(-c2cc(C(=O)Nc3ccc(Cl)cc3)nc(N)n2)c1`, the TGI in experiment [1], in [2], in experiment [3], in experiment [4], in [5] and in experiment [6] was > 100 µM throughout. The TGI in experiment [7] is > 100 µM.

In the case of `CN1CCN2c3ccccc3CC(C#N)(C#N)C2C1` (centres undefined), the TGI in [1], in [2], in experiment [3], in experiment [4], in experiment [5] and in [8] was > 100 µM in each case. Also, the TGI in experiment [6] is > 100 µM.

In the case of `COc1ccc2c3c(ccc2c1)NC(C(=O)O)CC3` (centres undefined), the TGI in experiment [9] was > 100 µM.

Turning to `CN(C)C(=O)C(NCCO)c1ccccc1` (centres undefined), in [9], the TGI was > 100 µM.

Turning to `Clc1cc2nc[nH]c2cc1Cl`, the TGI in experiment [1], in [2], in [3], in [4], in experiment [5] and in experiment [6] was > 100 µM each time. For the same compound, in experiment [7], the TGI was > 100 µM.

Regarding `CCOc1cccc2sc(N)nc12`, the TGI in experiment [1], in [2], in experiment [3], in [4], in [5] and in experiment [6] was > 100 µM throughout.

In the case of `COC(=O)CCC(=O)Nc1cccc(C(F)(F)F)c1`, the TGI in [1], in [2], in experiment [3], in experiment [4], in experiment [5] and in [6] was > 100 µM each time. Also, in experiment [7], the TGI was > 100 µM.

As for `Nc1nc(=O)c2[nH]cnc2n1O`, the TGI in [9] was > 100 µM.

For the compound `N#CC1=C(c2ccccc2)NN(Cc2ccccc2)C(c2ccc(Cl)cc2)CC1=O` (centres undefined), the TGI in experiment [1] was 49.1 µM; in experiment [2], > 100 µM; in [3], 73.5 µM; in experiment [4] it was > 100 µM; in experiment [8], 85.3 µM; in experiment [6] it was > 100 µM. This compound also gave a TGI in experiment [7] of 50.1 µM.

As for `CC1OC(OC23C(=O)CC(C)(O)CC2(O)C=CC2=C3C(=O)c3ccc(C4CC(OC5CCC(OC6CC(O)C(O)C(C)O6)C(C)O5)C(O)C(C)O4)c(O)c3C2=O)CCC1O` (centres undefined), the TGI is 26.8 µM and 23.8 µM in [1]; 31 µM and 21.2 µM in experiment [2]; 31.3 µM and 30.8 µM in experiment [3]; 28.8 µM and 23.9 µM in [4]; 35.6 µM and 26.5 µM in experiment [8]; 35.2 µM and 34.4 µM in experiment [6]. Moreover, the TGI in [7] was 32.9 µM and 32.1 µM. Besides, the GI50 in [2] is 16.5 µM and 8.11 µM.

Consider `COc1cccc(-c2cc(=O)c3cc(C)c(C)c(C(=O)O)c3o2)c1`, for which the TGI in experiment [1], in experiment [2], in [4], in [5], in experiment [8] and in [6] was > 100 µM throughout. Moreover, the TGI in experiment [7] is > 100 µM.

As to `COC(=O)c1ccc(CS(=O)(=O)c2ccccc2)cc1`, the TGI in [1], in experiment [2], in experiment [3], in experiment [4], in [5] and in experiment [8] was > 100 µM each time. Besides, the TGI in [6] and in experiment [7] was > 100 µM throughout.

`COC1=CC(=O)c2c(O)c3c(c(O)c2C1=O)OC1(Oc2c(cc4cc(C)oc(=O)c4c2O)CC1O)C3O` (centres undefined) showed a TGI in [9] of 42.9 µM.

For the compound `C[C@]12CC[C@H](OC(=O)Cc3ccc(N(CCCl)CCCl)cc3)CC1CC[C@@H]1C2CC[C@]2(C)NC(=O)CCC12` (some centres undefined), the TGI in experiment [1] was found to be 32.4 µM; in experiment [2], 21.9 µM; in experiment [3] it was 31.4 µM; in experiment [4], 25 µM; in experiment [5], 28.8 µM; in [8], 34.1 µM. The TGI worked out at 39.3 µM in experiment [6] and 28.3 µM in experiment [7].

As for `CCOC(=O)C1Nc2ccc([N+](=O)[O-])cc2[C@H]2OCC[C@@H]12` (some centres undefined), the TGI in [1], in experiment [2], in experiment [3], in [5], in experiment [8] and in [6] was > 100 µM each time. Also, in experiment [7], the TGI was > 100 µM.

For the compound `O=c1/c(=C/c2ccccc2O)sc2nc3ccccc3n12`, the TGI in [1] is > 100 µM; in experiment [2], 47.5 µM; in experiment [4], > 100 µM; in experiment [5], > 100 µM; in experiment [8], > 100 µM; in experiment [6], > 100 µM.

`CC1=CC[C@@H]2[C@@H](CC[C@@]2(C)O)C(C)(C)[C@H]1CC[C@@H]1[C@@]2(C)CC[C@@H](O)C(C)(C)O[C@@H]2CC[C@]1(C)O` gave a TGI in experiment [9] of 53.2 µM.

As for `COc1ccc(C(=C(C#N)C#N)c2ccc(OC)cc2)cc1`, the TGI in experiment [2], in experiment [4] and in [6] was > 100 µM each time.

Take `CCOC(=O)NC(=O)c1cn(CC(=O)NCC(=O)NCC(=O)N2CCN(CCn3c(C)nc(C(N)=O)c3N)CC2)c(=O)[nH]c1=O`: the TGI in [1], in experiment [2], in experiment [3], in experiment [4], in experiment [5] and in experiment [8] was > 100 µM throughout. In addition, the TGI in experiment [6] and in experiment [7] was > 100 µM throughout.

In the case of `Nc1ncnc2c1ncn2C1OC(CO)CC1O` (centres undefined), the TGI in [9] is > 100 µM.

In experiment [9], `CCC1CCC2C3CC=C4CC(OC(C)=O)C(N)CC4(C)C3CCC12C` (centres undefined) returned a TGI of 6.92 µM.

Consider `CO[C@H](C(=O)O[C@H]1C(=O)N2CCC3CCC1C32C)c1ccccc1` (some centres undefined), for which the TGI in experiment [1], in experiment [2], in experiment [3], in experiment [4], in experiment [5] and in experiment [6] was > 100 µM in each case. Further, in [7], the TGI was > 100 µM.

In the case of `CS(=O)(=O)OCCCCOS(C)(=O)=O`, the TGI is > 236 µM in experiment [1]; 250 µM in experiment [2]; > 200 µM in [3]; > 250 µM in experiment [4]; 230 µM in experiment [5]; 250 µM and > 1000 µM in experiment [9]. For the same compound, the TGI worked out at 250 µM in experiment [10], 246 µM in experiment [11], 224 µM in experiment [12] and 233 µM in experiment [6]. Further, the GI50 in experiment [9] is > 1000 µM.

`S=P(C1CCCCC1)(C1CCCCC1)C(c1cccnc1)N1CCCC1` (centres undefined): the TGI in experiment [9] came out at 39.3 µM.

Consider `CN(C(=N)c1ccccc1)c1ccccc1`, for which the TGI in experiment [1], in [3], in [4], in [5] and in experiment [6] was > 100 µM each time.

Take `O=C(/C=C/c1ccc[nH]1)c1ccccc1`: the TGI in experiment [1], in [2], in [3], in experiment [4], in experiment [5] and in [6] was > 100 µM throughout.

Consider `Cc1cc(Cl)ccc1NC(=O)C1C(=O)C(=O)N(c2ccc(Cl)cc2C)C1=O` (centres undefined), for which the TGI in experiment [1] is > 100 µM; in experiment [2], 68.1 µM; in experiment [4], > 100 µM; in [5], > 100 µM; in [8], > 100 µM; in experiment [6] it was > 100 µM.

Regarding `COc1ccc2c(c1)[n+]([O-])c(/C(C)=N/NC(N)=S)c(C)[n+]2[O-]`, the TGI in [1], in [2], in [3], in [4], in experiment [5] and in experiment [9] was > 100 µM in each case. The TGI in experiment [8], in experiment [6] and in experiment [7] was > 100 µM throughout.

For the compound `[O-]c1ccccc1[C-]=Nc1ccccc1O.[O-]c1ccccc1[C-]=Nc1ccccc1O.[O]=[U]=[O]`, the GI50 was 2.23 µM in [1]; 2.4 µM in experiment [2]; 4.11 µM in experiment [4]; 12.3 µM in [5]; 21.3 µM in experiment [6]; 20 µM in experiment [7]. For the same compound, the TGI in [1] was determined as 41 µM; in experiment [2], 23.2 µM; in experiment [4], 34.8 µM; in experiment [5] it was 48.6 µM; in [6] it was 61.2 µM; in experiment [7], 42 µM.

Consider `O=C1C2c3[nH]c4ccccc4c3C3CCC(c4ccccc4)CC3C2C(=O)N1c1ccccc1` (centres undefined), for which the TGI in experiment [1], in experiment [2], in [3], in experiment [4], in experiment [5] and in experiment [6] was > 100 µM in each case. The TGI in experiment [7] was > 100 µM.

For `CN1C(=O)C(C)(C)NS1(=O)=O`, the TGI in experiment [1], in experiment [2], in experiment [4], in experiment [5], in [8] and in experiment [6] was > 100 µM each time. Further, the TGI in [7] was > 100 µM.

Take `O=C(CC(O)c1cccnc1)CC(O)c1cccnc1` (centres undefined): the TGI in experiment [9] turned out to be 25.5 µM.

With `CC(C)(C)c1cc(O)c2c(c1O)C(=O)CCC2`, the TGI in experiment [1] was > 100 µM; in experiment [2], 69.1 µM; in [3], > 100 µM; in experiment [4], > 100 µM; in experiment [5] it was 84.9 µM; in experiment [8], > 100 µM. The figures for the TGI in experiment [6] and in [7] were > 100 µM and 71.2 µM, respectively.

Regarding `CCCCCCCCCCCCCCCCSS(C)(=O)=O`, the TGI in [1] was 37.7 µM; in experiment [3] it was > 100 µM; in experiment [4] it was 26.3 µM; in experiment [9], > 100 µM; in [8], 35.6 µM; in [7], 16.9 µM.

For the compound `OCC(O)C(O)C(O)c1nn[nH]n1` (centres undefined), the TGI in [1], in [2], in [4], in experiment [5] and in [6] was > 100 µM throughout.

As to `NC(N)=NS(=O)(=O)c1ccc(NC(=O)c2cccn3c(=O)c4ccccc4nc23)cc1`, the TGI in experiment [1], in [2], in experiment [3], in experiment [4], in experiment [5] and in experiment [8] was > 100 µM in each case. The figures for the TGI in [6] and in [7] were > 100 µM and 76.8 µM, respectively.

For `COc1ccc(-c2cc(=O)c3c(OC)c(O)c(OC)cc3o2)cc1`, the TGI in [9] was > 100 µM.

Take `CC12CCC(=O)N1c1cc([N+](=O)[O-])ccc1N2` (centres undefined): the TGI in experiment [1], in experiment [2], in experiment [3], in [4], in experiment [5] and in [8] was > 100 µM in each case. The TGI in [6] and in experiment [7] was > 100 µM each time.

Take `C=CCNC(=O)ON1C(=O)CCC1=O`: the TGI in [1], in experiment [2], in experiment [3], in [4], in experiment [5] and in [6] was > 100 µM in each case.

Take `NNC(=O)C(O)C(O)C(O)CO` (centres undefined): in experiment [9], the TGI was > 100 µM.

With `C=C(c1ccccc1)[C@@]1(O)CCCC[C@H]1NC(c1ccccc1)c1ccccc1`, the TGI in [1] was 31.9 µM; in experiment [2], 22.3 µM; in [3], 35.4 µM; in experiment [4], 23.9 µM; in [5] it was 28.3 µM; in experiment [6] it was 50.7 µM.
